Assay results published in patent US20250145585A1, “HETEROCYCLIC INHIBITORS OF IGF-1R FOR TREATMENT OF DISEASE” (HORIZON THERAPEUTICS IRELAND DAC, priority 2023, published 2025).

Biological target: T1, IGF-1R (Homo sapiens, UniProt P08069)
T1 construct: expressed in transfected cells
Experiment: Example B-2: IGF-1R Assay (PathHunter cell lines, EC80 agonist challenge, chemiluminescent detection)
Format: cell-based
Conditions: PathHunter cells, compound 60 minutes at 37° C., EC80 agonist 3 hours; read-out: IC50, Biological Activity against IGF-1R (Table B2)
Summary of the method: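 PathHunter cells were pre-incubated with compound for 60 min at 37° C (1% vehicle), then challenged with EC80 agonist for 3 h at room temperature. Chemiluminescent detection after 1 h gave % inhibition relative to EC80 and vehicle controls, from which IC50 was derived.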

T1 sequence (P08069 31-1367): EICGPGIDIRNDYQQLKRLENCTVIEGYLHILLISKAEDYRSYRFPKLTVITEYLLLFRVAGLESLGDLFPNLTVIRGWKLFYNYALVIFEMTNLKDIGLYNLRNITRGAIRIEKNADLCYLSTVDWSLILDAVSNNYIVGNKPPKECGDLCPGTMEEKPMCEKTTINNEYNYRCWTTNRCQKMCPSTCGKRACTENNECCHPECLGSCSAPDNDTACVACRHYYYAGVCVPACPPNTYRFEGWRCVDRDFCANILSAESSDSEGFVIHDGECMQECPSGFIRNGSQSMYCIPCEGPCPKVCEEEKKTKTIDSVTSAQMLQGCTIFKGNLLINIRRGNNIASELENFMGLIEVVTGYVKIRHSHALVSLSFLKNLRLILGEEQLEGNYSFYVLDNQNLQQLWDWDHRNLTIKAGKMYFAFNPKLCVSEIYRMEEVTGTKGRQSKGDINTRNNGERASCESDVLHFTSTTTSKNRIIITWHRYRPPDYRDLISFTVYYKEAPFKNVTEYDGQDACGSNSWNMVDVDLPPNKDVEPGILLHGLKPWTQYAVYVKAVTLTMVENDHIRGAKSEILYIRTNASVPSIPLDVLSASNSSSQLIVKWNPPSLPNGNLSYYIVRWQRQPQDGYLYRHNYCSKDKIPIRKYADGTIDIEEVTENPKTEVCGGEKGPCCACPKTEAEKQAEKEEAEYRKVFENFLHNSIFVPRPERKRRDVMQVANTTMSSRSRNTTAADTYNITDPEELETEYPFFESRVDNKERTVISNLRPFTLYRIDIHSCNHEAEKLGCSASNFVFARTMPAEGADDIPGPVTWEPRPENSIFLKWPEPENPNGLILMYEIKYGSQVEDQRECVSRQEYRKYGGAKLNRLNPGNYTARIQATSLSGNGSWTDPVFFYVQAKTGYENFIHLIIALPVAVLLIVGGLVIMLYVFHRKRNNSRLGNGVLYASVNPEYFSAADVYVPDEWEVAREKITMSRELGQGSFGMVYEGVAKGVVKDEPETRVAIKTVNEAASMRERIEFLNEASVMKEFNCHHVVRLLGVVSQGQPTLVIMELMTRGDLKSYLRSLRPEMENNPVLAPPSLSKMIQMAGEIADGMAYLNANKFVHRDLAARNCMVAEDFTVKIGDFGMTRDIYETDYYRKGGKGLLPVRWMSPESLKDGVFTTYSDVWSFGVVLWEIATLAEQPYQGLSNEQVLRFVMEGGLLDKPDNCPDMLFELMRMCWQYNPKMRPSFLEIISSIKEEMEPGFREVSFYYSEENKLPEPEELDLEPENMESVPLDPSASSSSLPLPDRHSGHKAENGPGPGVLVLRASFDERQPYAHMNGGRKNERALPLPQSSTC

Row | Structure (SMILES) | IC50
1 | COC[C@@H]1COc2c(CN3C(=O)N(c4ccc(C5(C(F)(F)F)CC5)cc4)C(=O)C3(C)C)ccnc2N1 [Compound 72, (R)-1-((3-(methoxymethyl)-3,4-dihydro-2H-pyrido[3,2-b][1,4]oxazin-8-yl)methyl)-5,5-dimethyl-3-(4-(1-(trifluoromethyl)cyclopropyl)phenyl) imidazolidine-2,4-dione] | ≤ 0.5 µM
2 | CC1(C)C(=O)N(c2ccc(OC(F)(F)F)c(N3CCOCC3)c2)C(=O)N1Cc1ccnc2c1CC(=O)N2 [Compound 74, 5,5-dimethyl-3-(3-morpholino-4-(trifluoromethoxy)phenyl)-1-((2-oxo-2,3-dihydro-1H-pyrrolo[2,3-b]pyridin-4-yl)methyl)imidazolidine-2,4-dione] | ≤ 0.5 µM
3 | CC1(C)C(=O)N(c2ccc(OC(F)(F)F)c(NC(=O)CN3CCOCC3)c2)C(=O)N1Cc1ccnc2c1CC(=O)N2 [Compound 75, N-(5-(4,4-dimethyl-2,5-dioxo-3-((2-oxo-2,3-dihydro-1H-pyrrolo[2,3-b]pyridin-4-yl)methyl)imidazolidin-1-yl)-2-(trifluoromethoxy)phenyl)-2-morpholinoacetamide] | ≤ 0.5 µM
4 | CC1(C)C(=O)N(c2ccc(C#N)c(C(F)(F)F)c2)C(=O)N1Cc1ccnc2c1CC(=O)N2 [Compound 76, 4-(4,4-dimethyl-2,5-dioxo-3-((2-oxo-2,3-dihydro-1H-pyrrolo[2,3-b]pyridin-4-yl)methyl)imidazolidin-1-yl)-2-(trifluoromethyl)benzonitrile] | 2 to 10 µM
5 | CC(C)(C)C(=O)Oc1cc2c(CN3C(=O)N(c4ccc(C5(C(F)(F)F)CC5)cc4)C(=O)C3(C)C)ccnc2[nH]1 [Compound 77, 4-((5,5-dimethyl-2,4-dioxo-3-(4-(1-(trifluoromethyl)cyclopropyl)phenyl)imidazolidin-1-yl)methyl)-1H-pyrrolo [2,3-b]pyridin-2-yl pivalate] | ≤ 0.5 µM
6 | CCOC(=O)N1C(=O)Cc2c(CN3C(=O)N(c4ccc(C5(C(F)(F)F)CC5)cc4)C(=O)C3(C)C)ccnc21 [Compound 78, ethyl 4-((5,5-dimethyl-2,4-dioxo-3-(4-(1-(trifluoromethyl)cyclopropyl)phenyl)imidazolidin-1-yl)methyl)-2-oxo-2,3-dihydro-1H-pyrrolo[2,3-b]pyridine-1-carboxylate] | ≤ 0.5 µM
7 | CC(C)(C)Cn1ccc(N2C(=O)N(Cc3ccnc4c3CC(=O)N4)C(C)(C)C2=O)cc1=O [Compound 79, 5,5-dimethyl-3-(1-neopentyl-2-oxo-1,2-dihydropyridin-4-yl)-1-((2-oxo-2,3-dihydro-1H-pyrrolo[2,3-b]pyridin-4-yl)methyl)imidazolidine-2,4-dione] | > 10 µM
8 | CC(CS(C)(=O)=O)Nc1cc(CN2C(=O)N(c3ccc(C4(C(F)(F)F)CC4)cc3)C(=O)C2(C)C)ccn1 (stereo not drawn) [Compound 140, 5,5-dimethyl-1-((2-((1-(methylsulfonyl)propan-2-yl)amino)pyridin-4-yl)methyl)-3-(4-(1-(trifluoromethyl)cyclopropyl)phenyl) imidazolidine-2,4-dione] | 0.5 to 2 µM
9 | CC1(C)C(=O)N(c2ccc(C3(C(F)(F)F)CC3)cc2)C(=O)N1Cc1ccnc(NC2CS(=O)(=O)C2)c1 [Compound 141, 1-((2-((1,1-dioxidothietan-3-yl)amino)pyridin-4-yl)methyl)-5,5-dimethyl-3-(4-(1-(trifluoromethyl)cyclopropyl)phenyl) imidazolidine-2,4-dione] | 0.5 to 2 µM
10 | CC1(C)C(=O)N(c2ccc(C3(C(F)(F)F)CC3)cc2)C(=O)N1Cc1ccnc(N[C@H]2C[C@H]2F)c1 [Compound 142, 1-((2-(((1S,2R)-2-fluorocyclopropyl)amino)pyridin-4-yl)methyl)-5,5-dimethyl-3-(4-(1-(trifluoromethyl)cyclopropyl)phenyl)imidazolidine-2,4-dione] | ≤ 0.5 µM
11 | CC(C)Nc1cc(CN2C(=O)N(c3ccc(C(C)(C)C#N)nc3)C(=O)C2(C)C)ccn1 [Compound 143, 2-(5-(3-((2-(isopropylamino)pyridin-4-yl)methyl)-4,4-dimethyl-2,5-dioxoimidazolidin-1-yl)pyridin-2-yl)-2-methylpropanenitrile] | 0.5 to 2 µM
12 | CC(C)Nc1cc(CN2C(=O)N(c3ccc(C4(C#N)CC4)cc3)C(=O)C2(C)C)ccn1 [Compound 144, 1-(4-(3-((2-(isopropylamino)pyridin-4-yl)methyl)-4,4-dimethyl-2,5-dioxoimidazolidin-1-yl)phenyl)cyclopropane-1-carbonitrile] | 0.5 to 2 µM
13 | CC(C)Nc1cc(CN2C(=O)N(c3ccc(C4(C#N)CC4(C)C)cc3)C(=O)C2(C)C)ccn1 (stereo not drawn) [Compound 145, 1-(4-(3-((2-(isopropylamino)pyridin-4-yl)methyl)-4,4-dimethyl-2,5-dioxoimidazolidin-1-yl)phenyl)-2,2-dimethylcyclopropane-1-carbonitrile] | ≤ 0.5 µM
14 | CC1(C)C(=O)N(c2ccc(C3(C(F)(F)F)CC3)cc2)C(=O)N1Cc1ccnc(NC2CCN(S(C)(=O)=O)C2)c1 (stereo not drawn) [Compound 146, 5,5-dimethyl-1-((2-((1-(methylsulfonyl)pyrrolidin-3-yl)amino)pyridin-4-yl)methyl)-3-(4-(1-(trifluoromethyl)cyclopropyl)phenyl) imidazolidine-2,4-dione] | 0.5 to 2 µM
15 | C[C@H](CC#N)Nc1cc(CN2C(=O)N(c3ccc(C4(C(F)(F)F)CC4)cc3)C(=O)C2(C)C)ccn1 [Compound 147, (R)-3-((4-((5,5-dimethyl-2,4-dioxo-3-(4-(1-(trifluoromethyl)cyclopropyl)phenyl)imidazolidin-1-yl)methyl)pyridin-2-yl)amino)butanenitrile] | ≤ 0.5 µM
16 | CC1(C)C(=O)N(c2ccc(C3(C(F)(F)F)CC3)cc2)C(=O)N1Cc1ccnc(N[C@H]2[C@@H]3COC[C@@H]32)c1 [Compound 148, 1-((2-(((1R,5S,6r)-3-oxabicyclo[3.1.0]hexan-6-yl)amino)pyridin-4-yl)methyl)-5,5-dimethyl-3-(4-(1-(trifluoromethyl)cyclopropyl)phenyl) imidazolidine-2,4-dione] | ≤ 0.5 µM
17 | CC(C)(C#N)c1ccc(N2C(=O)N(Cc3ccnc(NC4CC4)c3)C(C)(C)C2=O)cc1 [Compound 149, 2-(4-(3-((2-(cyclopropylamino)pyridin-4-yl)methyl)-4,4-dimethyl-2,5-dioxoimidazolidin-1-yl)phenyl)-2-methylpropanenitrile] | ≤ 0.5 µM
18 | COC[C@@H](C)Nc1cc(CN2C(=O)N(c3ccc(C(C)(C)C#N)cc3)C(=O)C2(C)C)ccn1 [Compound 150, (R)-2-(4-(3-((2-((1-methoxypropan-2-yl)amino)pyridin-4-yl)methyl)-4,4-dimethyl-2,5-dioxoimidazolidin-1-yl)phenyl)-2-methylpropanenitrile] | ≤ 0.5 µM
19 | C[C@@H](CC#N)Nc1cc(CN2C(=O)N(c3ccc(C(C)(C)C#N)cc3)C(=O)C2(C)C)ccn1 [Compound 151, (S)-3-((4-((3-(4-(2-cyanopropan-2-yl)phenyl)-5,5-dimethyl-2,4-dioxoimidazolidin-1-yl)methyl)pyridin-2-yl)amino)butanenitrile] | 0.5 to 2 µM
20 | CC(C)(C#N)c1ccc(N2C(=O)N(Cc3ccnc(N[C@H]4CCOC4)c3)C(C)(C)C2=O)cc1 [Compound 152, (S)-2-(4-(4,4-dimethyl-2,5-dioxo-3-((2-((tetrahydrofuran-3-yl)amino)pyridin-4-yl)methyl)imidazolidin-1-yl)phenyl)-2-methylpropanenitrile] | 0.5 to 2 µM
21 | CC(C)(C#N)c1ccc(N2C(=O)N(Cc3ccnc(NC4CCOCC4)c3)C(C)(C)C2=O)cc1 [Compound 153, 2-(4-(4,4-dimethyl-2,5-dioxo-3-((2-((tetrahydro-2H-pyran-4-yl)amino)pyridin-4-yl)methyl)imidazolidin-1-yl)phenyl)-2-methylpropanenitrile] | ≤ 0.5 µM
22 | CC(C)(C#N)c1ccc(N2C(=O)N(Cc3ccnc(NCC(F)F)c3)C(C)(C)C2=O)cc1 [Compound 154, 2-(4-(3-((2-((2,2-difluoroethyl)amino)pyridin-4-yl)methyl)-4,4-dimethyl-2,5-dioxoimidazolidin-1-yl)phenyl)-2-methylpropanenitrile] | 0.5 to 2 µM
23 | CC1(Nc2cc(CN3C(=O)N(c4ccc(C(C)(C)C#N)cc4)C(=O)C3(C)C)ccn2)CC1 [Compound 155, 2-(4-(4,4-dimethyl-3-((2-((1-methylcyclopropyl)amino)pyridin-4-yl)methyl)-2,5-dioxoimidazolidin-1-yl)phenyl)-2-methylpropanenitrile] | ≤ 0.5 µM
24 | COCCC(C)Nc1cc(CN2C(=O)N(c3ccc(C(C)(C)C#N)cc3)C(=O)C2(C)C)ccn1 (stereo not drawn) [Compound 156, 2-(4-(3-((2-((4-methoxybutan-2-yl)amino)pyridin-4-yl)methyl)-4,4-dimethyl-2,5-dioxoimidazolidin-1-yl)phenyl)-2-methylpropanenitrile] | ≤ 0.5 µM
25 | CCOC[C@H](C)Nc1cc(CN2C(=O)N(c3ccc(C4(C(F)(F)F)CC4)cc3)C(=O)C2(C)C)ccn1 [Compound 157, (S)-1-((2-((1-ethoxypropan-2-yl)amino)pyridin-4-yl)methyl)-5,5-dimethyl-3-(4-(1-(trifluoromethyl)cyclopropyl)phenyl) imidazolidine-2,4-dione] | ≤ 0.5 µM
26 | CC(C)OC[C@H](C)Nc1cc(CN2C(=O)N(c3ccc(C4(C(F)(F)F)CC4)cc3)C(=O)C2(C)C)ccn1 [Compound 158, (S)-1-((2-((1-isopropoxypropan-2-yl)amino)pyridin-4-yl)methyl)-5,5-dimethyl-3-(4-(1-(trifluoromethyl)cyclopropyl)phenyl) imidazolidine-2,4-dione] | 0.5 to 2 µM
27 | COCC1(Nc2cc(CN3C(=O)N(c4ccc(C5(C(F)(F)F)CC5)cc4)C(=O)C3(C)C)ccn2)CC1 [Compound 159, 1-((2-((1-(methoxymethyl)cyclopropyl)amino)pyridin-4-yl)methyl)-5,5-dimethyl-3-(4-(1-(trifluoromethyl)cyclopropyl)phenyl) imidazolidine-2,4-dione] | ≤ 0.5 µM
